Data as given in ChEMBL document CHEMBL2016455, “5-Benzothiazole substituted pyrimidine derivatives as HCV replication (replicase) inhibitors” (Bioorg Med Chem Lett, 2012).

Columns and labels:
[1] = Cytotoxicity against human hepatoma cells after 3 days by MTS assay; format: cell-based; conditions: human hepatoma cells
Hepatitis C virus = experiment: Antiviral activity against Hepatitis C virus isolate con1 1b infected in human hepatoma cells replicon cells after 3 days by RT-PCR analysis; format: functional, organism-based, Hepacivirus hominis, genotype 1b Con1; conditions: Hepatitis C virus, genotype 1b Con1, 72 h
[2] = Cytotoxicity against human hepatoma cells assessed as decrease in RNA level after 3 days by RT-PCR analysis; format: cell-based; conditions: human hepatoma cells
[3] = AUC (0 to 6 hrs) in rat at 10 mg/kg, po; format: ADME, organism-based; parameters: time < 6 hr, dose 10 mg/kg, route oral; conditions: plasma
Liver = experiment: Drug uptake in rat liver per mg tissue at 10 mg/kg, po after 6 hrs; format: ADME, organism-based; parameters: dose 10 mg/kg, route oral; conditions: in vivo

| Compound | EC50 (Hepatitis C virus) [µM] | AUC(0-t) at 6 h [3] [µM·h] | Drug uptake (Liver) [ng/g] | CC50 at 72 h [1] [µM] | CC50 at 72 h [2] [µM] |
| --- | --- | --- | --- | --- | --- |
| Nc1nc(Cl)c(-c2ccccc2)c(N[C@@H]2C[C@H](CO)[C@@H](O)[C@H]2O)n1 | > 25 |  |  | > 25 |  |
| Nc1nc(Cl)c(-c2ccccn2)c(N[C@@H]2C[C@H](CO)[C@@H](O)[C@H]2O)n1 | > 25 |  |  | > 25 | > 25 |
| Nc1nc(Cl)c(-c2cnccn2)c(N[C@@H]2C[C@H](CO)[C@@H](O)[C@H]2O)n1 | > 25 |  |  | > 25 |  |
| Nc1nc(Cl)c(-c2ccco2)c(N[C@@H]2C[C@H](CO)[C@@H](O)[C@H]2O)n1 | 4 |  |  | > 25 | > 25 |
| Nc1nc(Cl)c(-c2cccs2)c(N[C@@H]2C[C@H](CO)[C@@H](O)[C@H]2O)n1 | > 25 |  |  |  | > 25 |
| Nc1nc(Cl)c(-c2ncco2)c(N[C@@H]2C[C@H](CO)[C@@H](O)[C@H]2O)n1 | > 25 |  |  | > 25 | > 25 |
| Nc1nc(Cl)c(-c2nccs2)c(N[C@@H]2C[C@H](CO)[C@@H](O)[C@H]2O)n1 | 3 |  |  | > 25 | > 25 |
| Nc1nc(Cl)c(-c2cc3ccccc3[nH]2)c(N[C@@H]2C[C@H](CO)[C@@H](O)[C@H]2O)n1 | 7 |  |  | 25 |  |
| Nc1nc(Cl)c(-c2cc3ccccc3o2)c(N[C@@H]2C[C@H](CO)[C@@H](O)[C@H]2O)n1 | 0.3 |  |  | > 25 |  |
| Nc1nc(Cl)c(-c2cc3ccccc3s2)c(N[C@@H]2C[C@H](CO)[C@@H](O)[C@H]2O)n1 | > 25 |  |  |  | > 25 |
| Nc1nc(Cl)c(-c2nc3ccc(F)cc3s2)c(N[C@@H]2C[C@H](CO)[C@@H](O)[C@H]2O)n1 | 0.18 |  |  | > 25 | > 25 |
| Nc1nc(Cl)c(-c2nc3ccc(Cl)cc3s2)c(N[C@@H]2C[C@H](CO)[C@@H](O)[C@H]2O)n1 | 0.65 |  |  | > 25 | 16 |
| CN(C)c1ccc2nc(-c3c(Cl)nc(N)nc3N[C@@H]3C[C@H](CO)[C@@H](O)[C@H]3O)sc2c1 | 1 |  |  | > 25 | > 25 |
| Cc1nc(N)nc(N[C@@H]2C[C@H](CO)[C@@H](O)[C@H]2O)c1-c1nc2ccccc2s1 | 0.13 | 4.7 |  | 25 | 4 |
| CCCNc1nc(C)c(-c2nc3ccccc3s2)c(N[C@@H]2C[C@H](CO)[C@@H](O)[C@H]2O)n1 | 0.31 |  |  | > 25 | > 25 |
| CCc1nc(N(C)C)nc(N[C@@H]2C[C@H](CO)[C@@H](O)[C@H]2O)c1-c1nc2ccccc2s1 | 13 |  |  | > 25 | > 25 |
| Cc1nc(NCCNC(=O)NC(C)(C)C)nc(N[C@@H]2C[C@H](CO)[C@@H](O)[C@H]2O)c1-c1nc2ccccc2s1 | 0.9 |  |  | > 25 | > 25 |
| Cc1nc(NCCNS(C)(=O)=O)nc(N[C@@H]2C[C@H](CO)[C@@H](O)[C@H]2O)c1-c1nc2ccccc2s1 | 0.26 |  |  | > 25 | > 25 |
| Cc1nc(Nc2ccccc2)nc(N[C@@H]2C[C@H](CO)[C@@H](O)[C@H]2O)c1-c1nc2ccccc2s1 | 0.28 | 1.6 | 970 | > 25 | > 25 |
| Cc1nc(Nc2ccncc2)nc(N[C@@H]2C[C@H](CO)[C@@H](O)[C@H]2O)c1-c1nc2ccccc2s1 | 0.33 |  |  | 7 | 7 |
| Cc1nc(Nc2nccs2)nc(N[C@@H]2C[C@H](CO)[C@@H](O)[C@H]2O)c1-c1nc2ccccc2s1 | 0.77 |  |  | 13 | 15 |
| Cc1nc(Nc2ncco2)nc(N[C@@H]2C[C@H](CO)[C@@H](O)[C@H]2O)c1-c1nc2ccccc2s1 | 4.5 |  |  | > 25 | > 25 |

Now those with a lower EC50 (Hepatitis C virus), led by results:

| EC50 (Hepatitis C virus) [µM] | AUC(0-t) at 6 h [3] [µM·h] | Drug uptake (Liver) [ng/g] | Compound | CC50 at 72 h [1] [µM] | CC50 at 72 h [2] [µM] |
| --- | --- | --- | --- | --- | --- |
| 0.05 |  |  | Nc1nc(Cl)c(-c2nc3ccccc3o2)c(N[C@@H]2C[C@H](CO)[C@@H](O)[C@H]2O)n1 | 15 | 12 |
| 0.02 | 0.08 |  | Nc1nc(Cl)c(-c2nc3ccccc3s2)c(N[C@@H]2C[C@H](CO)[C@@H](O)[C@H]2O)n1 | 18 | 14 |
| 0.045 |  |  | COc1ccc2nc(-c3c(Cl)nc(N)nc3N[C@@H]3C[C@H](CO)[C@@H](O)[C@H]3O)sc2c1 | > 25 | > 25 |
| 0.03 |  |  | CCOc1ccc2nc(-c3c(Cl)nc(N)nc3N[C@@H]3C[C@H](CO)[C@@H](O)[C@H]3O)sc2c1 | 25 | > 25 |
| 0.05 |  |  | CNc1ccc2nc(-c3c(Cl)nc(N)nc3N[C@@H]3C[C@H](CO)[C@@H](O)[C@H]3O)sc2c1 | 16 | 6 |
| 0.02 |  |  | CNc1ccc2sc(-c3c(Cl)nc(N)nc3N[C@@H]3C[C@H](CO)[C@@H](O)[C@H]3O)nc2c1 | 14 | 20 |
| 0.035 |  |  | CN(C)c1ccc2sc(-c3c(Cl)nc(N)nc3N[C@@H]3C[C@H](CO)[C@@H](O)[C@H]3O)nc2c1 | 21 | 25 |
| 0.1 |  |  | Cc1nc(N[C@H](C)C(F)(F)F)nc(N[C@@H]2C[C@H](CO)[C@@H](O)[C@H]2O)c1-c1nc2ccccc2s1 | 19 | 21 |
| 0.03 | 2.1 | 2230 | Cc1nc(NCCCC(F)(F)F)nc(N[C@@H]2C[C@H](CO)[C@@H](O)[C@H]2O)c1-c1nc2ccccc2s1 | 4 | 3 |
| 0.03 | 2.2 | 430 | Cc1nc(NCc2ccccc2)nc(N[C@@H]2C[C@H](CO)[C@@H](O)[C@H]2O)c1-c1nc2ccccc2s1 | 7 | 9 |
| 0.006 | 0.5 | 180 | Cc1nc(NCc2cccs2)nc(N[C@@H]2C[C@H](CO)[C@@H](O)[C@H]2O)c1-c1nc2ccccc2s1 | 5 | 6 |
| 0.015 | 0.2 | 75 | Cc1nc(NCc2ccsc2)nc(N[C@@H]2C[C@H](CO)[C@@H](O)[C@H]2O)c1-c1nc2ccccc2s1 | 4 | 6 |
| 0.03 | 0.5 | 150 | Cc1nc(NCc2nccs2)nc(N[C@@H]2C[C@H](CO)[C@@H](O)[C@H]2O)c1-c1nc2ccccc2s1 | 21 | 23 |
| 0.03 | 3.4 | 125 | Cc1nc(NCc2ccccn2)nc(N[C@@H]2C[C@H](CO)[C@@H](O)[C@H]2O)c1-c1nc2ccccc2s1 | 18 | 13 |
| 0.015 | 0.02 | 10 | Cc1nc(NCc2cccnc2)nc(N[C@@H]2C[C@H](CO)[C@@H](O)[C@H]2O)c1-c1nc2ccccc2s1 | 11 | 5 |
| 0.03 | 0.1 | 100 | Cc1nc(NCc2ccncc2)nc(N[C@@H]2C[C@H](CO)[C@@H](O)[C@H]2O)c1-c1nc2ccccc2s1 | 9 | 7 |
